Here are results for one substance from patent US5463029A, “Purification of fusion proteins comprising GM-CSF and IL-3” (Immunex Corporation, priority 1992, dated 1995).

One data set deals with T1, GM-CSF receptor (Homo sapiens, UniProt P15509+P32927).
T1 construct: endogenous in cells
T1 sequence (P15509 23-400): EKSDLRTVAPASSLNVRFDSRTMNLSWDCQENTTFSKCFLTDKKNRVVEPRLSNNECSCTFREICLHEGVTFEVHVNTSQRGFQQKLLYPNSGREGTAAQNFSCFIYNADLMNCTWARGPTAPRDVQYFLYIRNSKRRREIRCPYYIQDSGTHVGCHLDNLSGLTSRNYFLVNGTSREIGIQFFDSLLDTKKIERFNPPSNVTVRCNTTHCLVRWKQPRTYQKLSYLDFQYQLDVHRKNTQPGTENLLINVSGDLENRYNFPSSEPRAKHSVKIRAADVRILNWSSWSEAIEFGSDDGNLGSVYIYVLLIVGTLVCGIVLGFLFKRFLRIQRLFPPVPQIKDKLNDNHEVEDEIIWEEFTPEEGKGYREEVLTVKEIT
T1 sequence (P32927 17-897): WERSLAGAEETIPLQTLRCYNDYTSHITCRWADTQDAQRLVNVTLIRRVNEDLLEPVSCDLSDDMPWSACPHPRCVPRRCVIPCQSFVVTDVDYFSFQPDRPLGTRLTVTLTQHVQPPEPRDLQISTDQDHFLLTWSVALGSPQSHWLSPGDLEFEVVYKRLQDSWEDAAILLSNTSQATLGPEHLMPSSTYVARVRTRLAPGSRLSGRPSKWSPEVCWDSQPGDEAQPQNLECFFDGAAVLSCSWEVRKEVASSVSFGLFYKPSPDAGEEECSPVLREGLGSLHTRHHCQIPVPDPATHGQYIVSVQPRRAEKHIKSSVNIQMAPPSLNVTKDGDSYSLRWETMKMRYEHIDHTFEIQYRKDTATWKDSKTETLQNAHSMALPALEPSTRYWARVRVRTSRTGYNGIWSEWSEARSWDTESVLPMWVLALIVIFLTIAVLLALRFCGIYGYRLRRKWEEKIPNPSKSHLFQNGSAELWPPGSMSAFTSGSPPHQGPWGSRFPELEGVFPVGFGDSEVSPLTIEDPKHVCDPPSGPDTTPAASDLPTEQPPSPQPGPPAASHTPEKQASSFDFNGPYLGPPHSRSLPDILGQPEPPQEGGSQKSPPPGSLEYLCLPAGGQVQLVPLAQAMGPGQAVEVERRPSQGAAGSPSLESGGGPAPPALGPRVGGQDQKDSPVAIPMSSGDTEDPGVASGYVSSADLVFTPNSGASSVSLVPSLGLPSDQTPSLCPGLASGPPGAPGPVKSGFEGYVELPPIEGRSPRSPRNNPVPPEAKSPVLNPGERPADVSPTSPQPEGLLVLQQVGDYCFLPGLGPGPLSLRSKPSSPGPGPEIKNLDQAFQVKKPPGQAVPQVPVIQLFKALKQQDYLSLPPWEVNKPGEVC
The data set can be described thus: binding affinity for GM-CSF receptor (as described by Park et al.). Here is the method:
(§1) The binding affinity of the recombinant fusion protein for receptors for both GM-CSF and IL-3 were determined substantially as described by Park et al., J. Biol. Chem. 264:5420; 1989, and Park et al., Blood 74:56; 1989.

A further data set addresses T2, IL-3 receptor (Homo sapiens, UniProt P26951+P32927).
T2 construct: endogenous in cells
T2 sequence (P26951 19-378): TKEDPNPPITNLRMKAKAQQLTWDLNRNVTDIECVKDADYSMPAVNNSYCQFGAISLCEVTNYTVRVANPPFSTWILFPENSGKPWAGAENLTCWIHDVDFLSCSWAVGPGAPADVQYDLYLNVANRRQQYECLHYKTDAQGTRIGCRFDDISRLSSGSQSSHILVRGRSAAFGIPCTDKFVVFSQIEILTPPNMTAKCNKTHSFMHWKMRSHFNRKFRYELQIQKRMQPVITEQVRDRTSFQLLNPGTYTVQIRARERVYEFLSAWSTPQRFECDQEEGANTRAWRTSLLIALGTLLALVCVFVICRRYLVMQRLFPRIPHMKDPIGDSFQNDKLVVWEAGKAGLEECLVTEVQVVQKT
T2 sequence (P32927 17-897): T1 sequence (P32927 17-897)
Description: binding affinity for IL-3 receptor (as described by Park et al.). Here is the method:
as §1

A further data set deals with TF-1 cells. Description: cell proliferation assay using TF-1 cells (tritiated thymidine incorporation). It counts as cell-based, human. Particulars: 72 hours at 37° C., tritiated thymidine for the final four hours. How it is done: The potency of the purified recombinant fusion protein was evaluated in a cell proliferation assay using TF-1 cells. TF-1 cells are a continuous cell line derived from human erythroid leukemia cells, and are dependent on IL-3 or GM-CSF for growth. TF-1 cells were maintained in medium containing GM-CSF. Prior to being used in an assay, the cells were washed free of GM-CSF, and resuspended to a concentration of 5×10^4 cells/ml in assay medium (Iscove's Modification of Dulbecco's Medium). The suspended cells were added to the wells of a 96-well microtiter plate containing dilutions of the recombinant fusion protein preparation, positive controls, or negative controls. The cells were incubated at 37° C. for 72 hours; proliferation was measured by adding tritiated thymidine for the final four hours of the incubation. The cells were harvested onto glass fiber filters, and the amount of radioactivity incorporated was determined by scintillation counting.
In general terms: Uptake of a labelled nucleoside into DNA is a usual measure of proliferation.

With “huGM-CSF[Leu^23 Asp^27 Glu^39 ]/Gly4 SerGly5 Ser/hulL-3[Pro^8 Asp^15 Asp^70 ] [recombinant fusion protein]”, the “binding affinity for GM-CSF receptor” value at GM-CSF receptor was 1e+10 M⁻¹. The “binding affinity for IL-3 receptor” value on IL-3 receptor was 2.2e+10 M⁻¹. Further, the “potency (a unit is the amount of recombinant fusion protein that induces half-maximal proliferation in the TF-1 bioassay)” value with TF-1 cells is 2.1×10^8 U/mg.
